One block for each compound: values may come before it.
Experiments:
mTOR = target: T1, mTOR (Mus musculus, UniProt P26883+Q9JLN9); experiment: mTOR activity (mTOR, S6K and S6 phosphorylation by ICS) in stimulated OT-I cells; assay type: cell-based
T1 construct: endogenous in cells; host or cells: naive OT-I CD8+ T cells (TCR transgenic Rag2-/- mice) stimulated with Ag+B7.1 +/- IL-12
Experimental: FIG. 1. […] (A and B) OT-I cells stimulated with BOK (Ag+B7.1) (±) IL-12 were evaluated for (A) IFN-γ by ICS and (B) cytolytic activity (primary, 72 hr poststimulation; secondary, 24 hr postsecondary stimulation); ***p<0.0002. (C-E) OT-I cells stimulated with antigen (Ag) (the antigen is a peptide consisting of Ser Ile Ile followed by Asn Phe Glu which are followed by Lys and Lue (OVAp), used at 10 nM) plus B7.1 (100 μg/ml)(Ag+B7.1)(±) IL-12 (2 ng/ml) were evaluated by ICS at the indicated time points for (C) phosphorylated mTOR, (D) phosphorylated S6K, and (E) phosphorylated ribosomal S6. For mTOR inhibition, rapamycin (20 ng/ml) was added 30 min prior to addition of antigen, cytokine Data are representative of at least three independent experiments with similar outcomes. (Data are presented as mean±SEM.)
(§1) Stimulation of OT-1 Cells. Naive OT-I cells were stimulated with latex microspheres expressing H-2K^b/ovalbumin antigen and B7.1 according to known techniques. Naive OT-II cells were stimulated with anti-CD3-/anti-CD28-coated latex beads. In some experiments, the cell line derived from embryonic fibroblasts, namely, BOK (MEC.B7.SigOVA: expressing H-2K^b, OVAp and B7.1, were used as antigen-presenting cells to stimulate naive OT-I cells according to known techniques.
Although the kinase mTOR has been implicated as an integrator of various extracellular signals and a sensor for internal energy levels for determination of cell fate, the role for mTOR in integrating instructions that program naive CD8^+ T cells for type I effector differentiation is unclear. First, we tested the ability of Ag and B7.1 (Ag+B7.1) in the presence or absence of IL-12 to activate mTOR in OT-I cells at various time points after stimulation. Stimulation of naive OT-I cells with Ag+B7.1 induced mTOR phosphorylation (activation) by 2 hr, which was maximal at 12 hr and barely detectable by 48 hr (FIG. 1C). Remarkably, IL-12 addition enhanced Ag+B7.1-induced mTOR phosphorylation at 2 hr, which was maintained at 48 hr after stimulation (FIG. 1C). […] To verify that the induction of mTOR phosphorylation also led to its kinase activity, we monitored the kinetics of p70 S6K phosphorylation (Ser 371), a direct target of mTOR kinase activity. Although both Ag+B7.1 and Ag+B7.1 plus IL-12 induced similar amounts of S6K phosphorylation at 12 hr (maximal), the presence of IL-12 was able to sustain the S6K phosphorylation up to 48 hr (FIG. 10), in correlation with mTOR phosphorylation (FIG. 1C). […] The Ag+B7.1±IL-12 stimulation-induced S6K and S6 phosphorylation in OT-I cells was blocked by rapamycin (specific inhibitor of mTOR complex-1) (FIGS. 1D and 1E), thus confirming the ability of instructions to activate mTOR and its kinase activity in OT-I cells. […]

T-bet = T-bet mRNA and protein expression in OT-I cells; assay type: cell-based, mouse
Experimental: FIG. 4. IL-12-Enhanced mTOR Phosphorylation Is Essential for T-bet-Determined Type I Effector Maturation of CD8^+ T Cells. (A-C) OT-I cells stimulated with Ag+B7.1 (±) IL-12 and rapamycin were evaluated for (A) mRNA for T-bet at the indicated time points by RT-PCR, (B) T-bet protein expression at the indicated time-points by ICS, and (C) T-bet protein expression by ICS before and after antigen recall. **p<0.0035; ***p<0.0005. (D) WT and Tbx21^−1− OT-I cells were stimulated with Ag+B7.1 (±) IL-12 and evaluated for IFN-γ production at the primary and secondary phase. ***p<0.0001. (E and F) OT-I cells stimulated with Ag+B7.1 (±) IL-12 and rapamycin were transduced with T-bet-ER retroviral vector (±) 4-HT (10 nM) and evaluated by ICS for (E) T-bet protein expression by ICS and (F) IFN-γ at secondary phase (168 hr). (G and H) OT-I cells stimulated with Ag+B7.1 (±) insulin (1 U/ml) and rapamycin were evaluated by ICS for (G) S6K phosphorylation at 48 hr and (H) T-bet expression at 72 hr. Experiments shown are representative of at least three (A, B, D, E, and F) and two (C, G, and H) independent experiments with similar outcomes. (Data are presented as mean±SEM).
Retroviral Transduction and T-Bet Induction. T-bet-ER RV (Estrogen Responsive Retro Viral Vector) was cotransfected into Platinum-E cells together with the retroviral packaging vector pCL-Eco using LipoD293 DNA in vitro transfection reagent (SignaGen Laboratories) following the manufacturer's instructions. The medium was replaced the following day, and retroviral supernatant was collected 3 days after transfection. For transduction, naive OT-I cells stimulated for 24 hr, were suspended in retroviral supernatant containing polybrene (8 μg/ml; Sigma-Aldrich), and were spin-transduced at 2200 rpm for 90 min at 30° C. After spin-transduction, cells were cultured in fresh medium containing the same polarizing milieu as before, along with the addition of 4-HT (10 nM). At the end of 72 hr after initial stimulation, cells were washed thrice and maintained in the absence of any stimulation but in the presence of 4-HT and IL-7 (10 ng/ml).
Because the sustained expression of T-bet is necessary and sufficient for imprinting type I effector cell fate (Matsuda et al., 2007) and mTOR inhibition reversed IL-12 imprinted type I effector maturation in OT-I cells (FIG. 3), we next sought to determine whether rapamycin treatment affects T-bet expression in OT-I cells by performing kinetic analysis of T-bet mRNA expression (FIG. 4A). […] Moreover, inhibition of mTOR activity at 12 hr was also able to achieve loss in T-bet expression, similar to the observed loss in type I effector maturation (FIG. 3E).

OT-I cells = experiment: Type I effector functions (IFN-γ, CTL activity, Granzyme B) of OT-I cells, primary and secondary phase; assay type: cell-based, mouse; conditions: T-bet-ER-transduced; tamoxifen 10 nM; secondary phase
Experimental: FIG. 3. Sustained mTOR Activity Is Essential for Heritable Type I Effector Differentiation of CD8^+ T Cells. […] (D and E) OT-I cells were stimulated with Ag+B7.1 (±) IL-12 and rapamycin was added 12 hr after stimulation to evaluate cells for (D) S6K phosphorylation at 48 hr and (E) IFN-γ production at the primary and secondary phase. Experiments shown are representative of at least three (A and B) and two (C-E) independent experiments with similar outcomes. (Data are presented as mean±SEM.)
as §1
Evaluation of Secondary Antigen-Recall Responses In Vitro. For studying secondary antigen-recall response in vitro; OT-I cells harvested at 72 hr (primary) were washed thrice with medium and recultured (1×10^5/ml) for an additional 72 hr in a 24-well plate with IL-7 (10 ng/ml) only. At 144 hr the cells were harvested, washed thrice with medium, had numbers adjusted (5×10^5), and were restimulated with Ag/B7.1 only for an additional 24 hr (secondary stimulation). At 168 hr, the cells recovered were evaluated by flow cytometry and in vitro functional assay.
Because the presence of IL-12 during antigen stimulation augments mTOR activity and is deterministic for type I effector maturation, we analyzed whether sustained mTOR kinase activity is required for IL-12-programmed type I effector functions in OT-I cells. To do so, we stimulated naive OT-I cells with BOK±IL-12, and rapamycin and effector functions were analyzed from the primary and secondary activated OT-I pool. […] In addition, we observed a block in IL-12-induced IFN-γ production and CTL activity upon rapamycin treatment at 144 hr after primary stimulation.

[1] = system: target cells loaded with gp100 25-33 epitope; experiment: In vivo CTL assay with Pmel-1 cells in C57/BL6 mice; set-up: species or system mouse; conditions: temsirolimus administered with the vaccine; 14 hours
Excerpt: (§2) Consistent with this possibility, immunization with CA9+gp100 elicited a gp100-specific IFN-γ response from splenocytes using an ELISPOT assay. […] Further, specific killing increased with temsirolimus treatment in an in vivo CTL assay. Pmel-1 cells were adoptively transferred to C57/BL6 mice and immunized with gp100+CA9 with or without temsirolimus. Pmel-1 cells are transgenic cells that recognize the H-2 Db-restricted epitope corresponding to amino acids 25-33 of gp100.13 Target cells loaded with the H-2 Db-restricted epitope were injected and monitored 14 hours later by flow cytometry. […] When temsirolimus was administered with the vaccine, specific killing increased to 78%.

gp100 = experiment: gp100-specific IFN-γ ELISPOT of splenocytes after immunization; assay type: in vivo, mouse; conditions: concurrent treatment with temsirolimus; p<0.05
Excerpt: FIG. 10. Immunization with CA9+gp100 elicited a gp100-specific IFN-γ response measured using the ELISPOT assay.
as §2

[2] = system: RENCA (renal cancer cells); experiment: In vitro growth of RENCA cells; assay type: cell-based, mouse
B16 melanoma = experiment: In vitro growth of B16 melanoma; assay type: cell-based, mouse
[3] = system: RENCA tumors expressing CA9; experiment: Renal cell carcinoma model: RENCA-CA9 tumors in Balb/c mice, vaccine with or without temsirolimus; assay type: in vivo, mouse
Experimental: FIG. 8. Renal Cell Carcinoma model. mTOR inhibition with temsirolimus enhanced the antitumor effects of a cancer vaccine (complex of hsp110 and CA9) in Balb/C mice 10 days after implantation of RENCA tumors expressing the tumor antigen CA9. Each line represents tumor growth in a single mouse. To generate the vaccine, CA9 (antigen target) and HSP110 (heat shock protein adjuvant) were complexed at 1:1 molar ratio by incubating at 43° C. for 30 min. On day 0, 2×10^5 Renca-CA9 cells were implanted into mice. The vaccine was administered i.d. on days 10, 17 and 24. Temsirolimus was inject i.p. on days 11 to 16, 18 to 23 and 25 to 30.
(§3) In the RCC model, a heat shock protein (HSP) served as an immune adjuvant and was complexed to a target antigen, carbonic anhydrase IX (CA9), which is expressed by 90% of clear cell RCCs. Balb/c mice were implanted with syngeneic RENCA tumors engineered to express CA9. In a treatment model targeting established tumor implants, mice were treated 10 days after implantation with tumor vaccine with or without temsirolimus (FIG. 8). […] In this model, CA9 was complexed to a melanoma antigen, gp100. C57/BL6 mice were implanted with syngeneic B16 tumors engineered to express gp100; mice were treated 10 days later with tumor vaccine. Similar results were obtained using a murine ovarian cancer model where the vaccine was augmented with rapamycin.

[4] = system: B16 tumors expressing gp100; experiment: Melanoma model: B16-gp100 tumors in C57/BL6 mice, vaccine with or without temsirolimus; assay type: in vivo, mouse; conditions: vaccine gp100+CA9; treated 10 days after implantation
Experimental: FIG. 9. mTOR inhibition with temsirolimus enhanced the antitumor effects of a cancer vaccine (complex of gp100 and CA9) in C57/BL6 mice treated 10 days after implantation of B16 tumors expressing gp100. Each line represents tumor growth in a single mouse. To generate the vaccine, gp100 (antigen target) and CA9 (adjuvant) were complexed at 1:1 molar ratio by incubating at RT for 30 min. On day 0, 2×10^5 B16-gp100 cells were implanted into mice. The vaccine was administered i.d. on days 10, 17 and 24. Temsirolimus was inject i.p. on days 11 to 16, 18 to 23 and 25 to 30.
as §3

[5] = 2-DG added to Ag+B7.1 and IL-12-stimulated OT-I cells

mTOR activity (mTOR; [5]): loss
Compound: O=CC[C@@H](O)[C@H](O)[C@H](O)CO [2-DG, 2-deoxyglucose]
T-bet expression (T-bet; [5]): loss

Compound: CC/C(=C(\c1ccccc1)c1ccc(OCCN(C)C)cc1)c1ccccc1 [tamoxifen]
IFN-γ production in rapamycin-treated IL-12-conditioned OT-I cells (OT-I cells): restored
T-bet expression in T-bet-ER-transduced OT-I cells (T-bet; tamoxifen 10 nM): substantial increase

Compound: CO[C@H]1C[C@@H]2CC[C@@H](C)[C@@](O)(O2)C(=O)C(=O)N2CCCC[C@H]2C(=O)O[C@H]([C@H](C)C[C@@H]2CC[C@@H](OC(=O)C(C)(CO)CO)[C@H](OC)C2)CC(=O)[C@H](C)/C=C(\C)[C@@H](O)[C@@H](OC)C(=O)[C@H](C)C[C@H](C)/C=C/C=C/C=C/1C [temsirolimus]
Specific killing [1]: 78%
gp100-specific IFN-γ response from splenocytes (gp100): significantly augmented
Growth in vitro [2]: direct effect
Growth in vitro (B16 melanoma): no effect
Tumor growth, agent alone ([3]; treatment from 10 days after implantation): decrease
Tumor growth, combination of vaccine and temsirolimus ([3]; vaccine i.d. days 10, 17, 24, temsirolimus i.p. between): greatest effect
Tumor growth, combination of vaccine and temsirolimus [4]: greatest effect

mTOR activity (S6 Kp) (mTOR; insulin (1 U/ml) added to Ag+B7.1-stimulated OT-I cells, 48 hr): enhanced
Compound: insulin
T-bet expression (T-bet; insulin (1 U/ml) added to Ag+B7.1-stimulated OT-I cells, 72 hr): increase

— patent publication US20100196311A1, “METHODS AND COMPOSITIONS CONTAINING mTOR INHIBITORS FOR ENHANCING IMMUNE RESPONSES” (priority 2009, published 2010)
